Laboratory results reported in ChEMBL document CHEMBL1121578, “Synthesis of certain [6:5:6] linear tricyclic nucleosides as potential antitumor agents” (1980).

What was measured:
Mus musculus [1] = experiment: In vivo increase in life span of drug treated (L1210-bearing) mice administered at a dose of 400 mg/kg/injection; type: functional
L1210 [2] = experiment: Concentration required to reduce the growth rate of L-1210 cells to half of the control rate; type: functional; details: Mus musculus, read-out: ID50 (the source's name)
Mus musculus [3] = experiment: In vivo increase in life span of drug treated (L1210-bearing) mice administered at a dose of 200 mg/kg/injection; type: functional
Mus musculus [4] = experiment: In vivo increase in life span of drug treated (L1210-bearing) mice administered at a dose of 600 mg/kg/injection; type: functional
Mus musculus [5] = experiment: In vivo increase in life span of drug treated (L1210-bearing) mice administered at a dose of 100 mg/kg/injection; type: functional
Mus musculus [6] = experiment: In vivo increase in life span of drug treated (L1210-bearing) mice administered at a dose of 120 mg/kg/injection; type: functional
Mus musculus [7] = experiment: In vivo increase in life span of drug treated (P388-bearing) mice administered at a dose of 200 mg/kg/injection; type: functional
Mus musculus [8] = experiment: In vivo increase in life span of drug treated (P388-bearing) mice administered at a dose of 50 mg/kg/injection; type: functional
Mus musculus [9] = experiment: In vivo increase in life span of drug treated (L1210-bearing) mice administered at a dose of 320 mg/kg/injection; type: functional
Mus musculus [10] = experiment: In vivo increase in life span of drug treated (L1210-bearing) mice administered at a dose of 8 mg/kg/injection; type: functional
L1210 [11] = experiment: Concentration required to reduce the growth rate of L-1210 cells to half of the control rate; No effect on cell growth of 1E-4 M of the compound; type: functional, cell-based; details: Mus musculus
Mus musculus [12] = experiment: In vivo increase in life span of drug treated (L1210-bearing) mice administered at a dose of 25 mg/kg/injection; type: functional

Nc1ncnc2c1c1c(O)nc(S)nc1n2C1O[C@H](CO)[C@@H](O)[C@H]1O (stereo partly specified)
ILS at 400 mg/kg (Mus musculus [1]): 14% | IC50 (L1210 [2]): 7 µM

Nc1ncnc2c1c1cncnc1n2C1O[C@H](CO)[C@@H](O)[C@H]1O (stereo partly specified)
ILS at 200 mg/kg (Mus musculus [3]): 2% | IC50 (L1210 [2]): > 100 µM

Nc1ncnc2c1c1c(O)nc(O)nc1n2C1O[C@H](CO)[C@@H](O)[C@H]1O (stereo partly specified)
ILS at 400 mg/kg (Mus musculus [1]): 108% | IC50 (L1210 [2]): ~100 µM

CSc1nc(O)c2c3c(N)ncnc3n(C3O[C@H](CO)[C@@H](O)[C@H]3O)c2n1 (stereo partly specified)
ILS at 200 mg/kg (Mus musculus [3]): 0% | IC50 (L1210 [2]): 80 µM

N#Cc1c(Br)n(C2O[C@H](CO)[C@@H](O)[C@H]2O)c2ncnc(N)c12 (stereo partly specified)
ILS at 600 mg/kg (Mus musculus [4]): 22% | IC50 (L1210 [2]): 0.21 µM

Nc1ncnc2c1c1c(SCc3ccc([N+](=O)[O-])cc3)ncnc1n2C1O[C@H](CO)[C@@H](O)[C@H]1O (stereo partly specified)
ILS at 200 mg/kg (Mus musculus [3]): -2% | IC50 (L1210 [2]): 45 µM

Nc1ncnc2c1c1c(N)nc(O)nc1n2C1O[C@H](CO)[C@@H](O)[C@H]1O (stereo partly specified)
ILS at 200 mg/kg (Mus musculus [3]): 21% | IC50 (L1210 [2]): 120 µM

Nc1ncnc2c1c1c(S)ncnc1n2C1O[C@H](CO)[C@@H](O)[C@H]1O (stereo partly specified)
ILS at 100 mg/kg (Mus musculus [5]): 38% | IC50 (L1210 [2]): 2 µM

NC(=O)c1c(N)n(C2O[C@H](CO)[C@@H](O)[C@H]2O)c2ncnc(N)c12 (stereo partly specified)
ILS at 120 mg/kg (Mus musculus [6]): 30% | IC50 (L1210 [2]): 16 µM

CSc1ncnc2c1c1c(N)ncnc1n2C1O[C@H](CO)[C@@H](O)[C@H]1O (stereo partly specified)
ILS at 200 mg/kg (Mus musculus [3]): 9% | ILS at 200 mg/kg (Mus musculus [7]): 5% | IC50 (L1210 [2]): 8.6 µM

Nc1ncnc2c1c1c(O)ncnc1n2C1O[C@H](CO)[C@@H](O)[C@H]1O (stereo partly specified)
ILS at 100 mg/kg (Mus musculus [5]): 20% | ILS at 50 mg/kg (Mus musculus [8]): 33% | IC50 (L1210 [2]): 63 µM

Nc1ncnc2c1c1cnc(O)nc1n2C1O[C@H](CO)[C@@H](O)[C@H]1O (stereo partly specified)
ILS at 320 mg/kg (Mus musculus [9]): 10% | IC50 (L1210 [2]): 75 µM

C=CCSc1ncnc2c1c1c(N)ncnc1n2C1O[C@H](CO)[C@@H](O)[C@H]1O (stereo partly specified)
ILS at 200 mg/kg (Mus musculus [3]): 9% | IC50 (L1210 [2]): 110 µM

Nc1ncnc2c1c1c(S)nc(S)nc1n2C1O[C@H](CO)[C@@H](O)[C@H]1O (stereo partly specified)
ILS at 400 mg/kg (Mus musculus [1]): 10% | IC50 (L1210 [2]): 6.1 µM

N#Cc1c(N)n(C2O[C@H](CO)[C@@H](O)[C@H]2O)c2ncnc(N)c12 (stereo partly specified)
ILS at 8 mg/kg (Mus musculus [10]): 26% | IC50 (L1210 [2]): 0.18 µM

CSc1nc(O)nc2c1c1c(N)ncnc1n2C1O[C@H](CO)[C@@H](O)[C@H]1O (stereo partly specified)
ID50 (L1210 [11]): No effect | ILS at 200 mg/kg (Mus musculus [3]): 4%

CSc1nc(N)c2c3c(N)ncnc3n(C3O[C@H](CO)[C@@H](O)[C@H]3O)c2n1 (stereo partly specified)
ID50 (L1210 [11]): No effect | ILS at 400 mg/kg (Mus musculus [1]): 1%

CSc1nc(SC)c2c3c(N)ncnc3n(C3O[C@H](CO)[C@@H](O)[C@H]3O)c2n1 (stereo partly specified)
ILS at 200 mg/kg (Mus musculus [3]): 45% | IC50 (L1210 [2]): 78 µM

Nc1ncnc2c1c1c(=S)[nH]c(=O)[nH]c1n2C1O[C@H](CO)[C@@H](O)[C@H]1O (stereo partly specified)
ILS at 100 mg/kg (Mus musculus [5]): 4% | IC50 (L1210 [2]): 11 µM

Nc1ncnc2c1c1c(N)ncnc1n2[C@@H]1O[C@H](CO)[C@@H](O)[C@H]1O
ID50 (L1210 [11]): No effect | ILS at 100 mg/kg (Mus musculus [5]): -9%

Nc1nc2c(c(=O)[nH]1)c1c(N)ncnc1n2[C@@H]1O[C@H](CO)[C@@H](O)[C@H]1O
ILS at 200 mg/kg (Mus musculus [3]): 13% | IC50 (L1210 [2]): 2.5 µM

NC(=S)c1c(N)n(C2O[C@H](CO)[C@@H](O)[C@H]2O)c2ncnc(N)c12 (stereo partly specified)
ILS at 25 mg/kg (Mus musculus [12]): 37% | IC50 (L1210 [2]): 0.22 µM
